The assay has as its target T1, mouse TLR7 (Mus musculus, UniProt P58681).
T1 construct: tissue Jackson Labs; host or cells: live female BALB/c mice
T1 sequence (P58681 27-1050): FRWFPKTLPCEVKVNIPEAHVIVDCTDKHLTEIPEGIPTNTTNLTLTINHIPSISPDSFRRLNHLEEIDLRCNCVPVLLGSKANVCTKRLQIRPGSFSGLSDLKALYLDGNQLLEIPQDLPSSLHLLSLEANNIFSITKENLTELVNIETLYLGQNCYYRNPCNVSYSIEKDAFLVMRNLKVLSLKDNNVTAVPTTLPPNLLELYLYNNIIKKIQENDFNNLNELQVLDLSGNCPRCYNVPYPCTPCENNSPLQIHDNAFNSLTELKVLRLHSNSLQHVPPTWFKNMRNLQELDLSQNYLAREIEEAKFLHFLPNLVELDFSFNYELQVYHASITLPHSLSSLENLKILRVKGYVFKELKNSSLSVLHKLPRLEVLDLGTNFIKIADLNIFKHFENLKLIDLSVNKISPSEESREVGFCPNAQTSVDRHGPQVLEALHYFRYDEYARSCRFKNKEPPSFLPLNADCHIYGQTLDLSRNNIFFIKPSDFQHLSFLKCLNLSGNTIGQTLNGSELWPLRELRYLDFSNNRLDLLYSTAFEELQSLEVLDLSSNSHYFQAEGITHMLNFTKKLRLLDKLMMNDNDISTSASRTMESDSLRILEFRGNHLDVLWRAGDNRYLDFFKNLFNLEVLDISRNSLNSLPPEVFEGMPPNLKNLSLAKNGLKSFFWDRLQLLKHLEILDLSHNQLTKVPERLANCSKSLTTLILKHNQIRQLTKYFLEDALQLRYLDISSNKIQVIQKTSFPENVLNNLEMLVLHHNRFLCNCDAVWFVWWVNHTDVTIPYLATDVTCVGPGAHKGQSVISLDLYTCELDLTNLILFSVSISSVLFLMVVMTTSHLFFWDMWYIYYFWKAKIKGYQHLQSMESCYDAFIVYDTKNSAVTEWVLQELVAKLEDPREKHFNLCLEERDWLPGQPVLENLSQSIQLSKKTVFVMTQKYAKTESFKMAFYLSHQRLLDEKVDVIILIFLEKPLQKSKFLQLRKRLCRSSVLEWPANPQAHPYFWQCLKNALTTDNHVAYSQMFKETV
Nature of the assay: Short-term in vivo (STIV) assay, plasma IL-6 after R848. The note with it: plasma IL-6 after R848 s.c., BALB/c mice. As to the method:
To assess compound potency in vivo against mouse TLR7, a short-term in vivo (STIV) assay was utilized. Briefly, mice were orally dosed with compounds and at various time points afterwards were injected subcutaneously with agonist R848 to stimulate TLR7. The plasma IL-6 level following R848 stimulation was then measured by ELISA to assess compound potency and duration-of-action. […] Therefore, the activity of compounds in the STIV assay can be confidently attributed to their modulation of the TLR7 pathway.
Six to eight week old female BALB/c mice (Jackson Labs, Bar Harbor, Me.) were dosed by oral gavage in 200 ul volume with antagonist compounds formulated in 0.5% aqueous methyl-cellulose (Sigma, St. Louis, Mo.). At various time points afterwards, mice were injected subcutaneously (s.c.) in 100 ul volume with 15 ug R848 (Resiquimod; GLSynthesis, Worcester, Mass.) to stimulate TLR7. Blood plasma was collected by cardiac puncture, and levels of IL-6 at 1.5 hours after TLR7 stimulation were then assessed by standard ELISA procedure according to the manufacturer's recommended protocol (R&D Systems).

`C[C@H]1C[C@@H](N)CN(c2ccc(C#N)c3ncccc23)C1` [ER-888840, 5-((3R,5S)-3-amino-5-methylpiperidin-1-yl)quinoline-8-carbonitrile]: the “% Suppression vs. Vehicle” value is 100% (6 h after oral dose, 33 mg/kg); 53% (13 hr after oral dose, 11 mg/kg); 95% (13 hr after oral dose, 33 mg/kg); 100% (13 hr after oral dose, 100 mg/kg); 24% (24 hr after oral dose, 11 mg/kg); 0% (24 hr after oral dose, 33 mg/kg). Besides, the “% Suppression vs. Vehicle” value reads like this: (24 hr after oral dose, 100 mg/kg) 98%; (24 hr after oral dose, 300 mg/kg) 100%.

These data come from patent US9663486B2, “Selectively substituted quinoline compounds” (EISAI R&D MANAGEMENT CO., LTD., priority 2013, dated 2017).
